PMC4820820, “CETSA screening identifies known and novel thymidylate synthase inhibitors and slow intracellular activation of 5-fluorouracil” (Nature Communications, 2016)
Where two headings read alike, the source gives them in different places.

Test system: K562 cells
Test: Cell viability assay (CellTiter-Glo)
Format: cell-based
Conditions: Homo sapiens
Method: A concentration–response curve of CBK115334 was generated using the Bravo liquid handling system (serial dilution of a 50 mM stock solution was done in 100% DMSO). A total of 150 nl of the serially diluted solutions and controls (positive control 0.67 mM staurosporine and negative control DMSO) were transferred to a white 384-well assay plate (3570, Corning) by means of acoustic dispensing (Echo 550, Labcyte). A Multidrop reagent dispenser (Thermo Scientific) was used to dispense 30 μl of a K562 cell suspension at a density of 33 × 10^3 cells per ml in supplemented cell culture medium. The cells were incubated at 37 °C in the presence of 5% CO2 for 72 h before addition of 30 μl CellTiter-Glo Luminescent Cell Viability Assay reagent (Promega) using a Multidrop Combi reagent dispenser (Thermo Scientific). The plate was placed on a plate shaker for 15 min prior to detection of the luminescence signal in an Envision plate reader (PerkinElmer). The final highest concentration of CBK115334 in the incubation with cells was 250 μM and the final concentration of the positive control staurosporine was 3 μM. All samples contained 0.5% DMSO. The data were analyzed using microsoft excel and GraphPad Prism 6.

## Cc1cc(O)nc2sc(C(=O)c3ccccc3)c(N)c12 [CBK115334, 3-amino-2-benzoyl-4-methylthieno(2,3-b)pyridin-6-ol]
72 hours incubation, read-out: IC50 cell viability
  IC50: 88 ± 15 µM
read-out: IC50 cell proliferation
  IC50: < 100 µM
